US12729377B2, “RNAi agents and compositions for inhibiting expression of angiopoietin-like 3 (ANGPTL3), and methods of use” (Arrowhead Pharmaceuticals, Inc., priority 2017, dated 2026)
In the oligonucleotide strings, read from the 5' end, every base follows the letter of its sugar. An asterisk marks phosphorothioate; unmarked linkages are phosphodiester. Other units and linkages are bracketed, terminal groups are in braces. A string of capitals states the bases alone. {NAG37} = tridentate N-acetyl-galactosamine targeting ligand, structure (NAG37)s; [invAb] = inverted abasic unit; m = 2'-O-methyl; f = 2'-fluoro

Legend:
[1] = test system: ANGPTL3 gene; assay: Example 10: serum triglycerides in mice; assay type: in vivo; settings: 0.5 mg/kg single SC injection day 1, female C57bl/6 mice, n=3, ratio to D5W control
Protocol: To assess the in vivo activity of further ANGPTL3 RNAi agents that are designed to target position 304 on the ANGPTL3 gene, six- to eight-week-old female C57bl/6 mice were used. Pre-dose serum samples were taken at day −1 after a four hour fast. At day 1, each mouse was given a single subcutaneous administration of 200 μl containing 0.5 mg/kg (mpk) of an ANGPTL3 RNAi agent in D5W (dextrose in 5% water), or control (D5W) with no RNAi agent, according to the dosing groups recited in Table 47.
Each of the RNAi agents included a modified sequence and an N-acetyl-galactosamine-containing targeting ligand conjugated to the 5′ terminal end of the sense strand. (See Tables 3, 4, and 5 for modified sequences and targeting ligand structures). As noted above, each of the ANGPTL3 RNAi agents dosed in this study included nucleotide sequences designed to target the ANGPTL3 gene at position 304. The injections were performed between the skin and muscle (i.e. subcutaneous injections) into the loose skin over the neck and shoulder area. Three (3) mice in each group were tested (n=3). Serum was collected on days 8, 15, 22, 29, and for some groups on day 36 (i.e., Groups 1, 2, and 9-13 only). Mice were fasted for four hours prior to each collection. ANGPTL3 protein levels in serum were measured by ELISA assay (R&D Systems), according to the manufacturer's recommendations. Triglycerides, total cholesterol, high-density lipoprotein (HDL), and low-density lipoprotein (LDL) in serum were measured on a Cobas® Integra 400 (Roche Diagnostics), according to the manufacturer's recommendations.
The ANGPTL3 protein levels, triglyceride levels, total cholesterol levels, HDL levels, and LDL levels for each animal were normalized. For normalization, the level of ANGPTL3 protein, triglyceride, HDL, and total cholesterol, respectively, for each animal at a time point, was divided by the pre-treatment level of expression in that animal (in this case at day −1) to determine the ratio of expression “normalized to pre-treatment.” Expression at a specific time point was then normalized to the D5W control group by dividing the “normalized to pre-treatment” ratio for an individual animal by the mean “normalized to pretreatment” ratio of all mice in the D5W control group.

[2] = test system: ANGPTL3 gene; assay: Example 14: RNAi agent and statin, serum total cholesterol in LDLR knockout mice; assay type: in vivo, LDLR KO mice
Source text: To evaluate the effect of co-administration of RNAi agents and statins in a disease model, LDLR KO mice were commercially obtained (The Jackson Laboratory). For three weeks prior to the onset of the study, forty-one (41) male 7 to 8 week old LDLR KO mice were placed on a high fat (“western”) diet (Teklad Custom Diets TD.88137), and remained on that diet throughout the duration of the study. Pre-dose serum samples were taken on study Day 1 after a four hour fast. The dosing regimen for the study is recited in the following Table 72:
• Mice were treated at 40 mg/kg for the first 11 days, then switched to 20 mg/kg thereafter.
The vehicle used for the oral gavage in the study was a 1:1 mixture of Ora-Plus®: Ora-Sweet® solution, which were acquired commercially. For the preparation of the atorvastatin oral gavage administrations, the respective desired dose of atorvastatin was first dissolved in sterile water (0.3 mL water per 1 mL of desired formulation) and vortexed until smooth, followed by the addition of a mixture of 1:1 Ora-Plus®: Ora-Sweet® solution (0.7 mL vehicle per 1 mL of desired formulation) and vortexed. On day 1 and for each day thereafter an oral gavage dose was administered for each of the Groups except for Group 2. On Day 23, Groups 1, 2, 3, and 4 received a single subcutaneous administration of 2.5 mg/kg dose ([…] solution) of an ANGPTL3 RNAi agent in D5W (dextrose in 5% water), or vehicle control (D5W) with no RNAi agent.
The RNAi agent tested (AD05488) included a modified sequence and an N-acetyl-galactosamine-containing targeting ligand conjugated to the 5′ terminal end of the sense strand. (See Tables 3, 4, and 5 for modified sequences and targeting ligand structures). The injections were performed between the skin and muscle (i.e. subcutaneous injections) into the loose skin over the neck and shoulder area. Serum was collected on days 8, 15, 22 (pre-RNAi agent injection), 29, 36, 43, and 50. LDLR KO mice were fasted for four hours prior to each collection.
ANGPTL3 protein levels in serum were measured by ELISA assay (R&D Systems), according to the manufacturer's recommendations. Among other biomarkers, triglycerides, total cholesterol, and low-density lipoprotein (LDL) in serum were measured on a Cobas® Integra 400 (Roche Diagnostics), according to the manufacturer's recommendations.
The ANGPTL3 protein levels, triglyceride levels, total cholesterol levels, HDL levels, and LDL levels for each animal were normalized. For normalization, respective levels of ANGPTL3 protein, TG, total cholesterol, or LDL for each animal at a time point was divided by the pre-treatment level of expression in that animal (in this case pre-dose levels on Day 1) to determine the ratio of expression “normalized to pre-treatment.” Data from the study set forth in this Example are shown in the following Tables 73-76: […]

AD05488: RNAi agent duplex: antisense AM07235-AS, sense AM07234-SS (antisense mU*fA*mC*fUmGfAmUfCmAfAmAfUmAfUmGfUmUfGmAfG*mC; sense {NAG37}*[invAb]*mGmCmUmCmAmAmCmAfUfAfUmUmUmGmAmUmCmAmGmUmA*[invAb])
Average Triglycerides Normalized to Pre-Treatmen and Control ([1]; Day 8): 0.646
Average Triglycerides Normalized to Pre-Treatmen and Control ([1]; Day 15): 0.669
Average Triglycerides Normalized to Pre-Treatmen and Control ([1]; Day 22): 0.723
Average Triglycerides Normalized to Pre-Treatmen and Control ([1]; Day 29): 0.739
Average Triglycerides Normalized to Pre-Treatmen and Control ([1]; Day 36): 0.843
Avg Total Chol normalized to pre-treatment ([2]; Group 2: no gavage, 2.5 mg/kg AD05488 SC on day 23, Day 8 (pre-RNAi agent injection)): 0.962
Avg Total Chol normalized to pre-treatment ([2]; Group 2: no gavage, 2.5 mg/kg AD05488 SC on day 23, Day 15 (pre-RNAi agent injection)): 1.122
Avg Total Chol normalized to pre-treatment ([2]; Group 2: no gavage, 2.5 mg/kg AD05488 SC on day 23, Day 22 (pre-RNAi agent injection)): 1.261
Avg Total Chol normalized to pre-treatment ([2]; Group 2: no gavage, 2.5 mg/kg AD05488 SC on day 23, Day 29): 0.645
Avg Total Chol normalized to pre-treatment ([2]; Group 2: no gavage, 2.5 mg/kg AD05488 SC on day 23, Day 36): 0.518
Avg Total Chol normalized to pre-treatment ([2]; Group 2: no gavage, 2.5 mg/kg AD05488 SC on day 23, Day 43): 0.512
Avg Total Chol normalized to pre-treatment ([2]; Group 2: no gavage, 2.5 mg/kg AD05488 SC on day 23, Day 50): 0.515
Avg Total Chol normalized to pre-treatment ([2]; Group 3: 10 mg/kg daily oral gavage atorvastatin, 2.5 mg/kg AD05488 on day 23, Day 8 (pre-RNAi agent injection)): 0.763
Avg Total Chol normalized to pre-treatment ([2]; Group 3: 10 mg/kg daily oral gavage atorvastatin, 2.5 mg/kg AD05488 on day 23, Day 15 (pre-RNAi agent injection)): 0.620
Avg Total Chol normalized to pre-treatment ([2]; Group 3: 10 mg/kg daily oral gavage atorvastatin, 2.5 mg/kg AD05488 on day 23, Day 22 (pre-RNAi agent injection)): 0.758
Avg Total Chol normalized to pre-treatment ([2]; Group 3: 10 mg/kg daily oral gavage atorvastatin, 2.5 mg/kg AD05488 on day 23, Day 29): 0.444
Avg Total Chol normalized to pre-treatment ([2]; Group 3: 10 mg/kg daily oral gavage atorvastatin, 2.5 mg/kg AD05488 on day 23, Day 36): 0.362
Avg Total Chol normalized to pre-treatment ([2]; Group 3: 10 mg/kg daily oral gavage atorvastatin, 2.5 mg/kg AD05488 on day 23, Day 43): 0.331
Avg Total Chol normalized to pre-treatment ([2]; Group 3: 10 mg/kg daily oral gavage atorvastatin, 2.5 mg/kg AD05488 on day 23, Day 50): 0.322
Avg Total Chol normalized to pre-treatment ([2]; Group 4: 20 mg/kg* daily oral gavage atorvastatin (40 mg/kg first 11 days), 2.5 mg/kg AD05488 on day 23, Day 8 (pre-RNAi agent injection)): 0.682
Avg Total Chol normalized to pre-treatment ([2]; Group 4: 20 mg/kg* daily oral gavage atorvastatin (40 mg/kg first 11 days), 2.5 mg/kg AD05488 on day 23, Day 15 (pre-RNAi agent injection)): 0.622
Avg Total Chol normalized to pre-treatment ([2]; Group 4: 20 mg/kg* daily oral gavage atorvastatin (40 mg/kg first 11 days), 2.5 mg/kg AD05488 on day 23, Day 22 (pre-RNAi agent injection)): 0.857
Avg Total Chol normalized to pre-treatment ([2]; Group 4: 20 mg/kg* daily oral gavage atorvastatin (40 mg/kg first 11 days), 2.5 mg/kg AD05488 on day 23, Day 29): 0.448
Avg Total Chol normalized to pre-treatment ([2]; Group 4: 20 mg/kg* daily oral gavage atorvastatin (40 mg/kg first 11 days), 2.5 mg/kg AD05488 on day 23, Day 36): 0.295
Avg Total Chol normalized to pre-treatment ([2]; Group 4: 20 mg/kg* daily oral gavage atorvastatin (40 mg/kg first 11 days), 2.5 mg/kg AD05488 on day 23, Day 43): 0.293
Avg Total Chol normalized to pre-treatment ([2]; Group 4: 20 mg/kg* daily oral gavage atorvastatin (40 mg/kg first 11 days), 2.5 mg/kg AD05488 on day 23, Day 50): 0.310
total reductions in total cholesterol ([2]; co-administration of atorvastatin and RNAi agent (Groups 3 and 4), LDLR KO mice on high fat diet): ~ 70%
